Data on 4 compounds can be found in patent publication US5196352A, “New FK-506 cytosolic binding protein” (Merck & Co., Inc., priority 1991, dated 1993).

The target in experiment [1] is HCB protein PPIase activity (Homo sapiens, UniProt P62942). As to the kind of experiment: PPIase assay of HCB protein (N-succinyl-Ala-Ala-Pro-Phe-p-nitroanilide, chymotrypsin coupled).
Procedure: (§1) Briefly, the PPIase assay measures the "cis" to "trans" isomerization of the proline-alanine peptide bond in the peptide, N-succinyl-Ala-Ala-Pro-Phe-p-nitroanilide. When in the "trans" form, the peptide is readily cleaved by chymotrypsin and the appearance of p-nitroanilide can be quantitated spectrophotometrically at 405 nm.
(§2) After 1.0 minutes, 30 ul of 2.0 mg/ml chymotrypsin (Sigma) in 100 mM Tris-HCl, pH 7.8 was added. After brief mixing, the absorbance was monitored at 405 nm in either a Perkin-Elmer 4B or Beckman DU 68 spectrophotometer. Absorbance measurements were taken at 3 or 5 second intervals for 4 minutes. A plot of Abs405 [steady state]--Abs405[time=t] versus time was made on semi-log paper. From the straight line, the time constant for Abs405 [steady state]--Abs405 [time=t] to fall by l/e was calculated. The reciprocal of this constant yields the rate constant k.
For experiment [2], the system named is low molecular weight cytosolic component. As to the kind of experiment: Direct binding of [3H]FK-506 to JURKAT cytosol, complex by HPLC gel filtration, competition with unlabeled compound. On the set-up: species or system human. Particulars: 200 fold molar excess of unlabeled compound; 16 nM [3H]FK-506, 200 μg cytosol protein. The protocol: A cell-free extract was prepared from JURKAT cells by lysing […] cells in 0.5 ml of 10 mM Tris-HCl, pH 7.5 containing 1 mM MgCl as described in the legend for FIG. 3.

The subject of experiment [3] is cyclophilin PPIase activity. Particulars: concentration of 1 uM.
Procedure: as §1, §2
For experiment [4], the target named is purified calf thymus cyclophilin (Bos taurus, UniProt P62935). The experiment can be described thus: LH-20 binding assay with purified cyclophilin. Particulars: for Bound (cpm), specifically bound: cyclophilin, 100 ng, 6.0 nM labeled compound.
Experiment [5] concerns JURKAT cytosol. The experiment can be described thus: LH-20 binding assay with JURKAT cytosol. Also noted: species or system human. Particulars: for Bound (cpm), specifically bound: 0.5 nM labeled compound; for effect of heating on binding to JURKAT cytosol (in words): heated cytosol.
The test system of experiment [6] is IL-2 secretion in JURKAT cells. As to the kind of experiment: Inhibition of IL-2 secretion in JURKAT cells stimulated with PMA and ionomycin (ELISA). Format: cell-based, human.
Procedure: Inhibition of IL-2 secretion in JURKAT cells stimulated with PMA and ionomycin by FK-506 and [^3 H]dihydro FK-506. JURKAT cells (equivalent to those available from the ATCC, supra) were cultured in RPMI 1640 media (Cellgro, Mediatech, Wash. D.C.) containing 1% Pen/Strep (Gibco), 1 mM Glutamine and 10% heat-inactivated fetal calf serum (Hazleton). For assay of IL-2 secretion by JURKAT cells, cells were cultured for 16 hr. in 96-well microtiter plates (Costar) at […] cells/ml in the above media containing 10 ng/ml of PMA (Sigma) and 5 μM ionomycin (Calbiochem) along with the concentrations of FK-506 or [^3 H]FK-506 indicated.
In experiment [7] the target is T1, JURKAT cytosol (Homo sapiens, UniProt P62942).
T1 construct: endogenous in cells; host or cells: JURKAT (human T-cell line), crude cytosol
The experiment can be described thus: LH-20 binding assay with JURKAT cytosol.

Setting [8] is: JURKAT cytosol 40 μg heated 56 C., 15 min.

Sequence of purified calf thymus cyclophilin (P62935 whole entry): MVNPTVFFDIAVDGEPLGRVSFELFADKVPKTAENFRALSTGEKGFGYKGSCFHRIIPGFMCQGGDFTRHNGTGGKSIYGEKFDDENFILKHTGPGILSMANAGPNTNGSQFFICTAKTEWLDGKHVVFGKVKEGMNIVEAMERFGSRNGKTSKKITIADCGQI
Sequence of HCB protein PPIase activity (P62942 whole entry): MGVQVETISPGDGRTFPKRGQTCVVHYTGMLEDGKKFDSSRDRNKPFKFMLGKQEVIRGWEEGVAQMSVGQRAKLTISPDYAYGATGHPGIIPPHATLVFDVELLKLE
T1 sequence (P62942 2-108): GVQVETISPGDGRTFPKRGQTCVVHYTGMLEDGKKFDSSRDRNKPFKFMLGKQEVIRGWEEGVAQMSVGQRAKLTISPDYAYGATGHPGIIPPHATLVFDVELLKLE

Regarding `CCC[C@@H]1/C=C(\C)C[C@H](C)C[C@H](OC)[C@H]2O[C@@](O)(C(=O)C(=O)N3CCCC[C@H]3C(=O)O[C@H](/C(C)=C/[C@@H]3CC[C@@H](O)[C@H](OC)C3)[C@H](C)[C@@H](O)CC1=O)[C@H](C)C[C@@H]2OC` [Dihydro-FK-506], the “inhibition of HCB protein PPIase activity (in words)” value in experiment [1] is on record as “specifically inhibits”.

As to `C=CC[C@@H]1/C=C(\C)C[C@H](C)C[C@H](OC)[C@H]2O[C@@](O)(C(=O)C(=O)N3CCCC[C@H]3C(=O)O[C@H](/C(C)=C/[C@@H]3CC[C@@H](O)[C@H](OC)C3)[C@H](C)[C@@H](O)CC1=O)[C@H](C)C[C@@H]2OC` [FK-506], in experiment [2], the “inhibition of the formation of the [^3 H]FK-506 complex” value was 90%. In addition, the “inhibition of cyclophilin PPIase activity (in words)” value in experiment [3] is reported as “no effect”. Also, the “inhibition of HCB protein PPIase activity (in words)” value in experiment [1] is recorded as “specifically inhibited”.

With `[3H]C(C)C([3H])C[C@@H](C)[C@@H](O)[C@H]1C(=O)N[C@@H](CC)C(=O)N(C)CC(=O)N(C)[C@@H](CC(C)C)C(=O)N[C@@H](C(C)C)C(=O)N(C)[C@@H](CC(C)C)C(=O)N[C@@H](C)C(=O)N[C@H](C)C(=O)N(C)[C@@H](CC(C)C)C(=O)N(C)[C@@H](CC(C)C)C(=O)N(C)[C@@H](C(C)C)C(=O)N1C` (some centres unmarked) [[^3 H]CsA, [^3 H]-dihydro CsA], the “Bound (cpm), specifically bound” value is given as 20,988 cpm in experiment [4]; 0 cpm in experiment [5] (setting [8]); 5,988 cpm in experiment [5] (JURKAT cytosol, 40 μg). Also, the “effect of heating on binding to JURKAT cytosol (in words)” value in experiment [5] is given as “completely aborgated”.

Broadly, the Kd is the equilibrium constant for the complex coming apart. For the compound `[3H]CC([3H])C[C@@H]1/C=C(\C)C[C@H](C)C[C@H](OC)[C@H]2O[C@@](O)(C(=O)C(=O)N3CCCC[C@H]3C(=O)O[C@H](/C(C)=C/[C@@H]3CC[C@@H](O)[C@H](OC)C3)[C@H](C)[C@@H](O)CC1=O)[C@H](C)C[C@@H]2OC` (some centres unmarked) [[^3 H]FK-506, [^3 H]-dihydro FK-506], the IC50 in experiment [6] (Homo sapiens, Jurkat, 16 h, read-out: concentration of inhibiting IL-2 secretion in JURKAT) is 1.1 nM. Besides, in experiment [6] (PMA and ionomycin), the “inhibition of IL-2 secretion in JURKAT cells (in words)” value is “potent inhibitor”. In experiment [6] (relative to FK-506, JURKAT cells, PMA and ionomycin), the “potency as inhibitor of IL-2 secretion, times less potent than the parent compound” value came out at 5 times. Besides, the “specific binding to purified calf thymus cyclophilin (in words)” value in experiment [4] (LH-20 assay) is “could not detect specific binding”. The “Bound (cpm), specifically bound” value in experiment [4] is on record as 0 cpm; in experiment [5] (setting [8]), 15,315 cpm; in experiment [5] (JURKAT cytosol, 40 μg), 13,585 cpm. In addition, the Kd in experiment [7] came out at 4 nM. In experiment [5], the “effect of heating on binding to JURKAT cytosol (in words)” value is “heat stable”.
